# US9815866B2, “Peptides that bind to epithelial cell adhesion molecule” (JAPANESE FOUNDATION FOR CANCER RESEARCH, priority 2012, dated 2017)
# Bridge positions count the residues as written; N and C are the ends. Ends that are not written are not given here. Peptide text beside a SMILES is read from it.
# Columns and labels:
# [1] = test system: non-EpCAM-expressing cells Hs578T; experiment: Cell staining of Hs578T cells, confocal microscope; assay type: cell-based; conditions: FITC-labeled peptide 0.4 μM, 37° C., 1 hour
# Method: (§1) The EpCAM-expressing cells HT-29 or the non-expressing cells Hs578T were cultured in a medium containing 10% fetal calf serum in a Petri dish for 48 hours and then incubated at 37° C. for 1 hour with the FITC-labeled Ep114 peptide or a L3A control labeled peptide at a final concentration of 0.4 μM Immediately thereafter, the cells were observed under a confocal microscope.
# [2] = target: T1, HT-29-derived exosomes (Homo sapiens, UniProt P16422); experiment: ELISA with immobilized biotinylated peptide and HT-29-derived exosomes; assay type: binding; conditions: increasing HT-29-derived exosomes
# T1 construct: endogenous in cells; host or cells: exosomes from HT-29 cells
# T1 sequence (P16422 24-314): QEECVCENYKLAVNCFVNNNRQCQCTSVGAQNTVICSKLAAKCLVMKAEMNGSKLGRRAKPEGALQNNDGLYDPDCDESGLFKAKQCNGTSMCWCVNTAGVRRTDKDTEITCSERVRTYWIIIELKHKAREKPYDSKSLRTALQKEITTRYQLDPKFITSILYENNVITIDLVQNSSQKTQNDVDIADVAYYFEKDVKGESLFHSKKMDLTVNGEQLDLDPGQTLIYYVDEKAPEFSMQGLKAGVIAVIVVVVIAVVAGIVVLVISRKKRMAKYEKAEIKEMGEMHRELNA
# Method: was immobilized onto an ELISA plate via streptavidin, and HT-29-derived exosomes were added thereto and reacted. After washing, bound exosomes were detected using the anti-EpCAM antibody. The biotin-modified peptide PE194 of the L3A variant was immobilized in the same way as above and used as a control.
# [3] = target: T2, 293T cells transfected with full-length EpCAM gene (Homo sapiens, UniProt P16422); experiment: Staining of 293T cells forced to express EpCAM with FITC-modified peptide; assay type: cell-based; conditions: FITC-modified peptide with or without oxidation treatment
# T2 construct: an expression plasmid in which the full-length EpCAM gene incorporated; expressed in transfected cells; host or cells: 293T
# T2 sequence (P16422 24-314): T1 sequence (P16422 24-314)
# From the text: 293T cells expressing no endogenous EpCAM were transfected with pkk196, an expression plasmid in which the full-length EpCAM gene incorporated, and forced to express EpCAM, followed by staining using FITC-modified Ep114.
# [4] = target: T3, EpCAM on HT-29 (Homo sapiens, UniProt P16422); experiment: Staining of spheroid-cultured HT-29 cells with FITC-modified peptide; assay type: cell-based; parameters: endogenous in cells; host or cells: HT-29; conditions: FITC-labeled peptide, 0.4 μM
# T3 sequence (P16422 24-314): T1 sequence (P16422 24-314)
# Method: The HT-29 cells as EpCAM-expressing cells were cultured by spheroid culture method as follows: 4×10^5 cells are suspended in 3 ml of D-MEM/F-12 medium (Dulbecco's Modified n Eagle Medium:Nutrient Mixture 12, 1:1 mixture) (Gibco/Life Technologies Inc.) supplemented with 20 ng/ml human EGF (Miltenyi Biotec K.K.), 20 ng/ml human EGF-2 (Miltenyi Biotec K.K.), B-27 (Gibco/Life Technologies Inc.), penicillin, and streptomycin and inoculated to EZ-Sphere®, a Petri dish of 3.5 cm in diameter coated with MPC polymer. After static culture for 72 hours, the cells were collected while the medium was suspended by pipetting. The cells were stained with the FITC-modified peptide and observed under a fluorescence microscope. […]
# [5] = target: T4, MCF-7 cells (Homo sapiens, UniProt P16422); experiment: Staining of EpCAM in MCF-7 cells; assay type: cell-based; conditions: data not shown
# T4 construct: in MCF-7 cells known to express EpCAM; endogenous in cells; host or cells: MCF-7
# T4 sequence (P16422 24-314): T1 sequence (P16422 24-314)
# Method: The HT-29 cells as EpCAM-expressing cells were cultured by spheroid culture method as follows: 4×10^5 cells are suspended in 3 ml of D-MEM/F-12 medium (Dulbecco's Modified n Eagle Medium:Nutrient Mixture 12, 1:1 mixture) (Gibco/Life Technologies Inc.) supplemented with 20 ng/ml human EGF (Miltenyi Biotec K.K.), 20 ng/ml human EGF-2 (Miltenyi Biotec K.K.), B-27 (Gibco/Life Technologies Inc.), penicillin, and streptomycin and inoculated to EZ-Sphere®, a Petri dish of 3.5 cm in diameter coated with MPC polymer. After static culture for 72 hours, the cells were collected while the medium was suspended by pipetting. The cells were stained with the FITC-modified peptide and observed under a fluorescence microscope. The staining was carried out by adding 4 μM peptide into a McCoy's 5A medium and standing still at room temperature for 30 minutes.
# In addition to HT-29 cells, the staining of EpCAM using Ep114 was also confirmed by a similar method in MCF-7 cells known to express EpCAM (data not shown).
# [6] = target: T5, EpCAM-expressing cells HT-29 (Homo sapiens, UniProt P16422); experiment: Cell staining of HT-29 cells, confocal microscope; assay type: cell-based; conditions: HT-29, FITC-labeled peptide 0.4 μM, 37° C., 1 hour
# T5 construct: EpCAM on HT-29 was stained at a concentration of 0.4 μM; endogenous in cells; host or cells: HT-29
# T5 sequence (P16422 24-314): T1 sequence (P16422 24-314)
# Method: as §1
# [7] = target: T6, EpCAM (Homo sapiens, UniProt P16422); experiment: Dissociation constant of EpCAM-binding peptide and EpCAM by fluorescence depolarization method; conditions: immediately after chemical synthesis, no oxidation
# T6 construct: with insertions myc and His tags at the C terminus of the extracellular domain; myc (C); made in house; host or cells: HEK-293T
# T6 sequence (P16422 24-265 limits assumed): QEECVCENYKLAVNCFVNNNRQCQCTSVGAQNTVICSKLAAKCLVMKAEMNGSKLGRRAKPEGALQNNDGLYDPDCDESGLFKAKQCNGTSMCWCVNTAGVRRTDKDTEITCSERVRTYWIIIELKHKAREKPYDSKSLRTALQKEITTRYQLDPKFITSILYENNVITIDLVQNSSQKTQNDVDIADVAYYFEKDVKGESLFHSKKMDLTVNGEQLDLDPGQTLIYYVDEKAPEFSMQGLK
# Method: The obtained EpCAM peptides were assayed for their strength of binding to EpCAM by the fluorescence depolarization method, which is a method for evaluating the interaction between molecules. Each fluorescently labeled EpCAM peptide and EpCAM are used to determine the strength of binding from the kinetics of depolarization by Brownian movement.
# Each FITC-modified EpCAM peptide or control peptide was suspended at a concentration of approximately 100 μM in PBS. After centrifugation, the supernatant was collected and diluted 10-fold, and the absorbance was measured at 495 nm From the measurement value, the molar concentration of the peptide was determined using the formula of Beer-Lambert of the following expression 1: A=E×b×C [Expression 1]
# EpCAM is diluted with PBS into several concentrations from 0 until reaching equilibrium (40 nM for the Ep133 peptide), and the FITC-modified peptide whose precise concentration has been measured by the aforementioned method is added to the dilutions thus prepared. The sample was left at a temperature for measurement for 30 minutes or longer and subjected to polarization measurement using a spectrofluorometer FP-6500 (JASCO Corp.) equipped with an automatic polarization measurement unit (JASCO Corp., APH-103). Kd was estimated by curve fitting according to the Hill equation.
# The dissociation constants of the two types of peptides Ep133 (FIG. 2(A)) and Ep114 (FIG. 2(C)), which were obtained in the present invention and had the high ability to bind to EpCAM, were measured by the fluorescence depolarization method.
# The dissociation constants of the EpCAM-binding peptide Ep301 (FIG. 2(D)) disclosed in Patent Literature 2 and Ep301 control (FIG. 2(E)), which was a control peptide derived from Ep301 by the substitution of cysteine at positions 5 and 10 by serine, and a sequence of EpCAM from residue 106 to 119 (FIG. 2(F)) having partial homology to EpCAM-binding peptides were measured similarly.
# [8] = S—S bond formation (autoxidation) of peptide by fluorescence depolarization method and HPLC; assay type: physicochemical
# From the text: The S—S bond formation of Ep114 was studied in detail using the fluorescence depolarization method and HPLC.
# [9] = target: T7, EpCAM (Homo sapiens, UniProt P16422); experiment: Binding activity against EpCAM after oxidation treatment (S—S bond formation, HPLC fractionation)
# T7 sequence (P16422 24-314): T1 sequence (P16422 24-314)
# [10] = target: T7, EpCAM; conditions: peptide separated from the phage; earlier work (Patent Literature 2); cited from earlier work
# [11] = test system: anti-Ep114 antibody; experiment: Immunoprecipitation with biotinylated Ep114 on streptavidin beads: binding to anti-Ep114 antibody; parameters: species or system rabbit; conditions: peptide on streptavidin-magnetic beads, Western blot
# Method: 250 μg of streptavidin-magnetic beads (Dynabeads® M-280 streptavidin, VERITAS Corp.) in TBS containing 2% BSA was added to 20 μg of the biotinylated Ep114 peptide and shaken at room temperature for 30 minutes, followed by washing with TBS. Beads reacted without the peptide were used as a control. The anti-Ep114 antibody was added to the beads in TBST and reacted at room temperature for 1 hour. After washing with TBS, the beads were collected. The collected beads were heated at 95° C. for 5 minutes in a SDS sample buffer. After Western-blotting, the anti-Ep114 antibody was detected using HRP-labeled anti-rabbit antibodies.
# A schematic diagram of the reaction with the magnetic beads is shown in the left panel of FIG. 5A, and the Western blot results are shown on the right panel thereof.
# [12] = target: T6, EpCAM; experiment: ELISA with ferritin-fused Ep114 peptide; assay type: binding; conditions: either partner immobilized
# Method: Ep114 was fused to the N terminus of Fer8 (Non Patent Literature 6), a ferritin derivative, and used in analysis.
# 1 μg of the ferritin-fused Ep114 peptide (Ep114/fer8) or ferritin (fer8) was immobilized onto an ELISA plate. Then, purified EpCAM was added thereto at different concentrations. Bound EpCAM was detected using the anti-EpCAM antibody (FIG. 8A).
# Next, 0.2 μg of purified EpCAM was immobilized onto an ELISA plate. Then, the ferritin-fused Ep114 peptide (Ep114/fer8) or ferritin (fer8) was added thereto at different concentrations. Bound Ep114 peptide (Ep114/fer8) or ferritin (fer8) was detected using an anti-ferritin antibody (FIG. 8B).
compound,measurement,setting,value
"CC[C@H](C)[C@@H]1NC(=O)[C@H](CC(N)=O)NC(=O)[C@H](CCCNC(=N)N)NC(=O)[C@H](C(C)C)NC(=O)[C@@H](NC(=O)[C@H](CCC(N)=O)NC(=O)[C@H](CC(C)C)NC(=O)[C@H](Cc2c[nH]cn2)NC(=O)[C@@H](N)CCCCN)CSSC[C@@H](C(=O)N[C@@H](Cc2c[nH]c3ccccc23)C(=O)N[C@@H](CO)C(=O)O)NC1=O [Ep114, KHLQCVRNICWS] (H-KHLQCVRNICWS-OH; disulfide 5-10; N-terminus and C-terminus assumed)",staining,[1],no staining was observed
same,ELISA signal,[2],enhancement in ELISA signal was observed
same,ability to stain EpCAM,[3],equivalent ability to stain EpCAM
same,staining of EpCAM on HT-29 spheroids,[4],stained
same,staining of EpCAM,[5],confirmed
same,staining of cell membrane portions,[6],staining of the cell membrane portions of the EpCAM-expressing cells HT-29 was observed
same,binding activity against EpCAM,[7],no binding activity against EpCAM
same,S—S bond formation,"[8]; in PBS at 4° C. or frozen at −20° C., data not shown",oxidized after 10 days to form an S—S bond
same,oxidation,[8]; in the presence of 10% FCS,rapidly oxidized
"CC[C@H](C)[C@@H]1NC(=O)[C@@H](NC(=O)[C@H](CCC(N)=O)NC(=O)[C@H](CC(C)C)NC(=O)[C@H](CO)NC(=O)[C@@H](N)CCCCN)CSSC[C@@H](C(=O)N[C@@H](Cc2c[nH]c3ccccc23)C(=O)N2CCC[C@H]2C(=O)O)NC(=O)[C@H](CC(C)C)NC(=O)[C@H](CC(N)=O)NC(=O)[C@H](CC(N)=O)NC1=O [Ep301, KSLQCINNLCWP, reference compound] (H-KSLQCINNLCWP-OH; disulfide 5-10; N-terminus and C-terminus assumed)",binding activity against EpCAM,[9],gain binding activity against EpCAM
same,ability of the peptide to bind to EpCAM,[10],weak
"biotinylated Ep114: Ep114 peptide biotinylated at the stage of its synthesis, without linker (KHLQCVRNICWS; cysteine pairing not given here; also: biotin label, position not given here)",binding to anti-Ep114 antibody,[11],bound with the anti-Ep114 antibody
"ferritin-fused Ep114 peptide: Ep114 fused to the N terminus of Fer8, a ferritin derivative (KHLQCVRNICWS; not fully specified (C-terminus, bridges); cysteine pairing not given here; also: fused to ferritin Fer8 (recombinant carrier), not in the letters)",detection of EpCAM,[12],capable of sensitively detecting EpCAM
